Patent US11168087B2, “Substituted imidazo[1,2-b]pyridazines, substituted imidazo[1,5-b]pyridazines, related compounds, and their use in the treatment of medical disorders” (BIAL—R&D Investments, S.A., priority 2016, dated 2021)

Biological target: T1, glucocerebrosidase (Gcase) (Homo sapiens, UniProt P04062)
T1 construct: micellar solution containing 10 nM GCase and 100 nM saposin C
T1 sequence (P04062 40-536): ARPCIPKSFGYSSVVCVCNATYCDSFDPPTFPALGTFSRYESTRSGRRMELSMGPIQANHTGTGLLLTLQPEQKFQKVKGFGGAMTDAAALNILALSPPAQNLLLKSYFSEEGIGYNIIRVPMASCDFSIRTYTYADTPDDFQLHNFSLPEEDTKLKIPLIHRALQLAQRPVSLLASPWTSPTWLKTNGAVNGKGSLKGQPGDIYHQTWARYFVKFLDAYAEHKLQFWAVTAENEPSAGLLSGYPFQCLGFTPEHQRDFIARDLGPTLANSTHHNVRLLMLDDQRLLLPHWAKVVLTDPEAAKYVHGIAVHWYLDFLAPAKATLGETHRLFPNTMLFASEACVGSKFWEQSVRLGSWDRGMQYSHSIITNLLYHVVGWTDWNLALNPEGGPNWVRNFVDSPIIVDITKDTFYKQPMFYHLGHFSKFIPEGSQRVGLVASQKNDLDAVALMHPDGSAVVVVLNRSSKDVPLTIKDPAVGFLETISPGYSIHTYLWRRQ
Assay: Glucocerebrosidase (Gcase) activation assay, 4-methylumbelliferyl-beta-D-glucopyranoside substrate, with saposin C
Type: biochemical
Details: 0.25 h; for activation at 0.1 µM: read-out: Percent Gcase Activation 0.1 μM Test Compound; for activation at 1 µM: read-out: Percent Gcase Activation 1 μM Test Compound
Experimental: The ability of exemplary compounds to activate glucocerebrosidase (Gcase) was measured.
A 484 μL aliquot of a 1.0 mg/mL solution of phosphatidylserine (PS) (Sigma P7769) in chloroform was evaporated under a stream of nitrogen for 1 hour. The lipid film was dissolved over 4 minutes of vigorous vortexing in 40 mL of 176 mM K2HPO4/50 mM citric acid (pH 4.7) containing 7.5 μL of triton X-100, resulting in a mixed micellar preparation with a composition of 0.32 mM triton and 0.37 mol % PS. 4-Methylumbelliferyl-beta-D-glucopyranoside (ACROS-337025000) was dissolved in the micellar solution to a final concentration of 2 mM for use as the reaction substrate.
Test compounds were diluted to the desired concentrations with dimethylsulfoxide (DMSO) from 10 mM stocks, and 0.41 μL of the DMSO compound mixture was added to 100 μL of micellar solution containing 10 nM GCase and 100 nM saposin C (Enzo ALX-201-262-C050). Pre-incubation was allowed to occur for 30 minutes at room temperature, after which the reaction was initiated by combining 25 μL of substrate solution with 25 μL of compound/GCase/saposin mixture. The reaction proceeded for 15 minutes at room temperature and was stopped by adding 150 μL of 1M glycine, pH 12.5. The endpoint of the reaction was monitored by measuring fluorescence intensity (excitation: 365 nm; emission: 440 nm) on a SpectraMax i3 instrument (Molecular Devices). Test compounds were screened at 1.0 and 0.1 μM final concentration, and subsequent 8-point dose response curves were obtained using 3-fold dilutions from a maximum final concentration of 5 μM.
The symbol “+” indicates less than 5% Gcase activation; the symbol “++” indicates Gcase activation in the range of 5% up to 20%; and the symbol “+++” indicates Gcase activation greater than 20%.

Row | Compound | activation at 0.1 µM [%] | activation at 1 µM [%]
1 | Cc1ccc(-c2cc(C)c3ncc(C(=O)N[C@@H](C4CC4)C(F)(F)F)n3n2)cn1 [(S)-6-(6-Methylpyridin-3-yl)-N-(1-cyclopropyl-2,2,2-trifluoroethyl)-8-methylimidazo[1,2-b]pyridazine-3-carboxamide] | < 5 | > 20
2 | Cc1cc(C)c2onc(C(=O)NC(C3CC3)C(F)(F)F)c2n1 (stereo not drawn) [N-(1-Cyclopropyl-2,2,2-trifluoroethyl)-5,7-dimethylisoxazolo[4,5-b]pyridine-3-carboxamide] | < 5 | > 20
3 | Cc1cc(C)c2onc(C(=O)NC(C)(C)C3CC3)c2n1 [N-(2-Cyclopropylpropan-2-yl)-5,7-dimethylisoxazolo[4,5-b]pyridine-3-carboxamide] | 5 to 20 | > 20
4 | Cc1cc(C)c2ncc(C(=O)NC(C3CC3)C(F)(F)F)n2n1 (stereo not drawn) | < 5 | > 20
5 | Cc1cc(-c2ccc3c(c2)ncn3C)nn2c(C(=O)N[C@@H](C3CC3)C(F)(F)F)cnc12 | 5 to 20 | > 20
6 | Cc1cc(-c2ccc(F)o2)nn2c(C(=O)NC(C3CC3)C(F)(F)F)cnc12 (stereo not drawn) | > 20 | > 20
7 | CCCCCO[C@H]1CC[C@H](NC(=O)c2nsc3c(C)cc(C)nc23)CC1 [5,7-Dimethyl-N-((1R,4R)-4-(pentyloxy)cyclohexyl)isothiazolo[4,5-b]pyridine-3-carboxamide] | > 20 | > 20
8 | Cc1cc(C)c2snc(C(=O)NC3CCCc4ccccc43)c2n1 (stereo not drawn) [5,7-Dimethyl-N-(1,2,3,4-tetrahydronaphthalen-1-yl)isothiazolo[4,5-b]pyridine-3-carboxamide] | > 20 | > 20
9 | Cc1cc2ncc(C(=O)Nc3ccc4c(c3)CCC4)n2nc1Cl | < 5 | 5 to 20
10 | Cc1cc(-c2cccc(F)c2)nn2c(C(=O)NC(C3CC3)C(F)(F)F)cnc12 (stereo not drawn) | > 20 | > 20
11 | C#Cc1ccc(NC(=O)c2cnc3ccc(Cl)nn23)cc1 | 5 to 20 | 5 to 20
12 | Cc1cc(-c2cccc(F)c2)nn2c(C(=O)NC(C)C(F)(F)F)ncc12 (stereo not drawn) | 5 to 20 | > 20
13 | Cc1cc(-c2ccc3ocnc3c2)nn2c(C(=O)N[C@@H](C)C(F)(F)F)cnc12 | > 20 | > 20
14 | Cc1cc(-c2cccc(F)c2)nn2c(C(=O)NC(C)C(F)(F)F)cnc12 (stereo not drawn) | 5 to 20 | > 20
15 | CCC(NC(=O)c1ncc2c(C)cc(C)nn12)c1ccccc1 (stereo not drawn) | < 5 | > 20
16 | Cc1cc(-c2cccc(F)c2)nn2c(C(=O)N[C@H](C3CC3)C(F)(F)F)ncc12 [(R)—N-(1-Cyclopropyl-2,2,2-trifluoroethyl)-2-(3-fluorophenyl)-4-methylimidazo[1,5-b]pyridazine-7-carboxamide] | > 20 | > 20
17 | Cc1cc(-c2ccc3ocnc3c2)nn2c(C(=O)NC(C3CC3)C(F)(F)F)cnc12 (stereo not drawn) | > 20 | > 20
18 | Cc1cc(C)c2scc(C(=O)NC(C3CC3)C(F)(F)F)c2n1 (stereo not drawn) | > 20 | > 20
19 | Cc1cc(-c2ccns2)nn2c(C(=O)NC(C3CC3)C(F)(F)F)cnc12 (stereo not drawn) | 5 to 20 | > 20
20 | Cc1cc(N2CCCC(F)(F)C2)nn2c(C(=O)N[C@@H](C3CC3)C(F)(F)F)cnc12 | > 20 | > 20
21 | CCCCCO[C@H]1CC[C@H](NC(=O)c2noc3c(C)cc(C)nc23)CC1 [5,7-Dimethyl-N-((1R,4R)-4-(pentyloxy)cyclohexyl)isoxazolo[4,5-b]pyridine-3-carboxamide] | 5 to 20 | > 20
22 | Cc1cc(N2CCC(F)(F)C2)nn2c(C(=O)NC(C3CC3)C(F)(F)F)cnc12 (stereo not drawn) | > 20 | > 20
23 | Cc1cc(-c2cccc(C(N)=O)c2)nc2c(C(=O)NC(C3CC3)C(F)(F)F)nsc12 (stereo not drawn) | < 5 | 5 to 20
24 | Cc1cc(-c2cccnc2)nc2c(C(=O)NC(C)C3CC3)csc12 (stereo not drawn) | > 20 | > 20

Row | Compound | activation at 0.1 µM [%] | activation at 1 µM [%]
25 | CCC(NC(=O)c1cnc2cc(C)c(Cl)nn12)c1ccccc1 (stereo not drawn) | < 5 | 5 to 20
26 | Cc1cc(Cl)nn2c(C(=O)Nc3ccc4c(c3)CCC4)cnc12 | 5 to 20 | > 20
27 | Cc1cc(N2CCN(C(C)C)C2=O)nn2c(C(=O)NC(C3CC3)C(F)(F)F)cnc12 (stereo not drawn) | 5 to 20 | > 20
28 | Cc1cc(-c2cccc(C(N)=O)c2)nc2c(C(=O)NC(C3CC3)C(F)(F)F)csc12 (stereo not drawn) | > 20 | > 20
29 | Cc1cc(-c2ccc(F)cc2)nn2c(C(=O)NC(C)(C)C3CC3)cnc12 | 5 to 20 | > 20
30 | O=C(Nc1ccc2c(c1)CCC2)c1cnc2ccc(Cl)nn12 | < 5 | 5 to 20
31 | Cc1cc(N2CCCC(F)(F)C2)nn2c(C(=O)N[C@H](C3CC3)C(F)(F)F)cnc12 | > 20 | > 20
32 | Cc1cc(-c2cccc(F)c2)nn2c(C(=O)NC(C)(C)C3CC3)cnc12 | > 20 | > 20
33 | Cc1cc(C)c2ncc(C(=O)N[C@@H](C)C3CC3)n2n1 | < 5 | 5 to 20
34 | Cc1cc(C)c2occ(C(=O)NC3CCCc4ccccc43)c2n1 (stereo not drawn) [5,7-Dimethyl-N-(1,2,3,4-tetrahydronaphthalen-1-yl)furo[3,2-b]pyridine-3-carboxamide] | > 20 | > 20
35 | CCC(NC(=O)c1cnc2c(C)cc(C)nn12)c1ccccc1 (stereo not drawn) | < 5 | > 20
36 | Cc1cc(-c2cncc(F)c2)nn2c(C(=O)NC(C3CC3)C(F)(F)F)cnc12 (stereo not drawn) | 5 to 20 | > 20
37 | COc1cncc(-c2cc(C)c3ncc(C(=O)N[C@@H](C4CC4)C(F)(F)F)n3n2)c1 | 5 to 20 | > 20
38 | Cc1cc(-c2cc(C)c3cnc(C(=O)N[C@@H](C4CC4)C(F)(F)F)n3n2)sn1 [(S)—N-(1-Cyclopropyl-2,2,2-trifluoroethyl)-4-methyl-2-(3-methylisothiazol-5-yl)imidazo[1,5-b]pyridazine-7-carboxamide] | 5 to 20 | > 20
39 | Cc1cc(-c2ccc3ocnc3c2)nn2c(C(=O)N[C@H](C3CC3)C(F)(F)F)cnc12 | > 20 | > 20
40 | Cc1cc(C)c2ncc(C(=O)NC(C)(C)C3CC3)n2n1 | 5 to 20 | > 20
41 | Cc1cncc(-c2cc(C)c3ncc(C(=O)N[C@@H](C4CC4)C(F)(F)F)n3n2)c1 | < 5 | > 20
42 | Cc1cc(C)c2ncc(C(=O)NC3(C)CCCc4ccccc43)n2n1 (stereo not drawn) | 5 to 20 | > 20
43 | Cc1cc(-c2ccc(C(N)=O)o2)nn2c(C(=O)N[C@@H](C3CC3)C(F)(F)F)ncc12 | 5 to 20 | > 20
44 | Cc1cc(-c2cccc3ocnc23)nc2c(C(=O)NC(C3CC3)C(F)(F)F)nsc12 (stereo not drawn) | < 5 | 5 to 20
45 | Cc1cc(C)c2cnc(C(=O)N[C@@H](C)C3CC3)n2n1 | < 5 | 5 to 20
46 | Cc1cc(N2CCN(C(C)C)C2=O)nn2c(C(=O)N[C@@H](C3CC3)C(F)(F)F)ncc12 [(S)—N-(1-Cyclopropyl-2,2,2-trifluoroethyl)-2-(3-isopropyl-2-oxoimidazolidin-1-yl)-4-methylimidazo[1,5-b]pyridazine-7-carboxamide] | 5 to 20 | > 20
47 | Cc1cc(-c2ccccn2)nc2c(C(=O)NC(C3CC3)C(F)(F)F)nsc12 (stereo not drawn) | < 5 | 5 to 20
48 | Cc1cc(-c2c(F)cccc2C#N)nn2c(C(=O)N[C@@H](C)C(F)(F)F)cnc12 [(S)-6-(2-Cyano-6-fluorophenyl)-8-methyl-N-(1,1,1-trifluoropropan-2-yl)imidazo[1,2-b]pyridazine-3-carboxamide] | 5 to 20 | > 20
